The results in this text go back to patent US8039648B2, “Compounds used as dyes comperable to Alexa Fluor 350 dyes” (Pierce Biotechnology, Inc., priority 2009, dated 2011).

Structures can show the parent of a compound that is named as a salt.

The test system of series [1] is biotin and mouse IgG coated white 96-well plates. As to the kind of experiment: Plate-based functional testing of streptavidin and GAM conjugates (Example 12). The series is classed as binding. The settings on record: for signal sensitivities and intensities of bound conjugates compared to conjugates made with AMCA-NHS: GAM and SA conjugates made with the dye, 4 μg/ml, ex 346/em 442. Here is the method:
Streptavidin and GAM conjugates made in Example 11 were analyzed on biotin and mouse IgG coated white 96-well plates. The plates were coated by making a 1:1 serial dilution of biotinylated bovine serum albumin (BSA, Thermo Scientific) and mouse IgG with starting concentrations of 2 μg/ml and 10 μg/ml, respectively. One hundred μl of each dilution was added per well. The last column on each plate was considered blank (PBS buffer only). The plates were incubated overnight at 4° C. and then blocked by washing 3×200 μl with SuperBlock Blocking Buffer in PBS (Thermo Scientific). Plates were washed 2×200 μl PBS-Surfact-Amp 20 and 1×100 μl PBS. All of the conjugates were diluted to 4 μg/ml in PBS buffer, added to the plates (100 μl/well) and incubated for one hour at room temperature (RT) (about 20° C. to about 22° C.). The plates were then washed 2×200 μl with PBS containing 0.05% Surfact-Amp 20 and 1×200 μl PBS. Finally 100 μl PBS buffer was added to the wells. The fluorescence intensity of the bound conjugate was measured on Tecan Safire using optimal Alexa Fluor 350 setting (ex 346/em 442) and optimal gain. FIGS. 7A and 7B show relative fluorescent units (RFU) and signal to background ratios (S/B), respectively, of goat anti-mouse antibodies (GAM) conjugated to amino-methyl-coumarin-acetate (AMCA), V07-09111-NHS, V07-09144-NHS, and Alexa Fluor 350-NHS. FIGS. 7C and 7D show RFU and S/B, respectively, of streptavidin (SA) conjugated to AMCA, V07-09111, V07-09144, and Alexa Fluor 350.

A short description of series [2]: Absorbance spectra of the NHS dyes in PBS buffer (Example 8). The series is classed as physicochemical. The settings on record: PBS buffer pH 7.2, 10 mg/ml in DMF diluted 1:1000. The procedure:
Each of NHS-AMCA (MW=330 g/mole), V07-09111-NHS “8-isomer” (MW=874.1 g/mole), V07-0144-NHS “6-isomer” (MW=874.1 g/mole) and Alexa Fluor 350-NHS, Molecular Probes (Product #A10168) were reconstituted in DMF at 10 mg/ml and then diluted 1:1000 in PBS buffer (100 mM sodium phosphate, 150 mM NaCl; pH 7.2). Absorbance of the sample was evaluated from 440 nm to 240 nm on a UV Cary Spectrophotometer (Varian).

The nature of series [3]: UV-Vis absorption and emission maxima given with the synthesis examples. It is filed as physicochemical.
Series [4] can be described thus: Absorption and emission spectra in water and ethanol (Example 9). It is filed as physicochemical. The settings on record: for emission spectrum maximum: excitation 345 nm. The procedure:
Absorption spectra of compounds V07-09111 and V07-09144 (concentrations between 10 μM and 50 μM) in water and ethanol (spectral grade) were recorded (Analytik Jena Specord 205 absorption spectrometer, quartz cuvettes with a pathlength of 1 cm). For emission spectra determination, the solutions were diluted in PBS (100 mM, pH 7.4, 100 mM sodium chloride, 5 mM sodium azide) to an absorbance of around 0.1 at a 1 cm pathlength; emission spectra were recorded on a JASCO FP-6600 fluorescence spectrometer; excitation wavelength 345 nm, excitation and emission slits were 3 nm and 6 nm, respectively. Both absorption and emission spectra were normalized to the maxima for presentation in FIGS. 2, 3, 4, and 5.
FIGS. 2 and 3 show the absorbance and emission spectra of V07-09144 in water and ethanol, respectively. FIGS. 4 and 5 show the absorbance and emission spectra of V07-09111 in water and ethanol, respectively. The absorbance and emission spectra of V07-09111 are 350 nm and 430 nm in water, and 351 nm and 443 nm in ethanol, respectively. The absorbance and emission spectra of V07-09144 are 350 nm and 440 nm in water, and 351 nm and 443 nm in ethanol, respectively.

A further series concerns Lamin A. In words: Immunofluorescence detection of Lamin A in HeLa cells with dye-GAM conjugates (Example 13). The following applies: GAM conjugates made with the dye, 4 μg/ml, similar molar excesses. It is filed as cell-based, human. The procedure: Lamin A was stained in HeLa cells to compare […]-09111-GAM and […]-09144GAM to AMCA-GAM and Alexa Fluor 350-GAM. HeLa cells were seeded at about 10,000 cells/well in a 96-well clear bottom collagen coated tissue culture plate (BD Falcon BioCoat collagen) and cultured overnight. To fix the cells, the medium was removed and replaced at 100 μl/well with freshly prepared 4% paraformaldehyde (EMS Product #15710-S) diluted in 8 mM sodium phosphate, 2 mM potassium phosphate, 140 mM sodium chloride and 10 mM potassium chloride (PBS pH 7.4) and the cells were incubated at room temperature for 15 minutes. After 15 minutes, the cells were washed 3 times with PBS. After removal of PBS the cells were permeabilized with 100 μl/well of PBS containing 0.1% Surfact-Amps X-100. The permeabilization was carried out at room temperature (RT) for 15 minutes and then the cells were washed two times with PBS. The cells were blocked at RT for 30 minutes with (100 μl/well) PBS containing 0.1% Triton X-100 and supplemented with 2% of BlockerTM BSA (Thermo Scientific). […] The images shown in FIGS. 8A-H were acquired using the appropriate shift free optical filter set with a […] on Zeiss Axio Observer Z1 fluorescence microscope using an ORCA-ER-1394 Hamamatsu, CCD Digital Camera and the AxioVison Release 4.7 Software. […]

Consider `Cc1c(CC(=O)ON2C(=O)CCC2=O)c(=O)oc2cc(N)c(S(=O)(=O)O)cc12` [Alexa Fluor 350-NHS, reference compound], for which the “signal sensitivities and intensities of bound conjugates compared to conjugates made with AMCA-NHS” value in series [1] is “higher signal sensitivities and intensities”. Further, the “absorbance maxima (AbsMax)” value in series [2] amounted to 345 nm.
Take `Cc1c(CC(=O)ON2C(=O)CCC2=O)c(=O)oc2cc(N)ccc12` [NHS-AMCA, succinimidyl-7-amino-4-methylcoumarin-3-acetate, reference compound]: in series [2], the “absorbance maxima (AbsMax)” value was found to be 349 nm.
For the compound `Nc1ccc2c3c(c(=O)oc2c1S(=O)(=O)O)CCC3C(CC(=O)O)S(=O)(=O)[O-].[Na+]` (stereo not drawn) [V07-09089, 3-(7-amino-4-oxo-6-sulfo-1,2,3,4-tetrahydro-cyclopenta[c]chromen-1-yl)-3-sulfopropionic acid bis sodium salt], the “binding in a functional plate assay among the DY-350 dyes” value in series [1] (comparison among the DY-350 dyes) was “lower binding in a functional plate assay”. Besides, in series [3] (UV-Vis (PBS)), the λem was determined as 429 nm and the λmax came to 352 nm.
In the case of `CCOC(=O)CCC1CCc2c1c1ccc(NC(=O)OCC)cc1oc2=O` (stereo not drawn) [V07-09096, 3-(7-ethoxycarbonylamino-4-oxo-1,2,3,4-tetrahydro-cyclopenta[c]chromen-1-yl)propionic acid ethylester], in series [3] (in methanol), the ε is 23000 L/mol/cm, the λem worked out at 393 nm and the λmax is reported as 328 nm.
With `Nc1ccc2c3c(c(=O)oc2c1S(=O)(=O)O)CCC3C(CC(=O)NCCCC(=O)O)S(=O)(=O)O` (stereo not drawn) [V07-09111, 4-[3-(7-amino-4-oxo-6-sulfo-1,2,3,4-tetrahydro-cyclopenta[c]chromen-1-yl)-3-sulfo-propionylamino]-butyric acid], in series [4] (in ethanol), the absorbance spectrum maximum is 351 nm and the emission spectrum maximum is recorded as 443 nm. In series [4] (in water), this compound registered an absorbance spectrum maximum of 350 nm and an emission spectrum maximum of 430 nm. Further, in series [3] (UV-Vis (PBS)), the λem was 430 nm and the λmax is on record as 352 nm.
Take `Nc1ccc2c3c(c(=O)oc2c1S(=O)(=O)O)CCC3C(CC(=O)NCCCC(=O)ON1C(=O)CCC1=O)S(=O)(=O)O` (stereo not drawn) [V07-09111-NHS, 4-[3-(7-amino-4-oxo-6-sulfo-1,2,3,4-tetrahydro-cyclopenta[c]chromen-1-yl)-3-sulfo-propionylamino]-butyric acid NHS ester bis diisopropyethylammonium salt]: the “specificity of staining and background compared to NHS-AMCA or NHS-Alexa Fluor 350 conjugates” value in the series on Lamin A is given as “higher specificity of staining for the target with lower background”. Further, the “signal sensitivities and intensities of bound conjugates compared to conjugates made with AMCA-NHS” value in series [1] is “higher signal sensitivities and intensities”. In series [2], the “absorbance maxima (AbsMax)” value was determined as 352 nm. Also, in series [3] (UV-Vis (PBS)), the λem is 430 nm and the λmax was 352 nm.
As to `Nc1c(S(=O)(=O)O)cc2c3c(c(=O)oc2c1S(=O)(=O)O)CCC3C(CC(=O)O)S(=O)(=O)[O-].[Na+]` (stereo not drawn) [V07-09140, 3-(7-amino-4-oxo-6,8-disulfo-1,2,3,4-tetrahydro-cyclopenta[c]chromen-1-yl)-3-sulfo-propionic acid tris sodium salt], in series [3] (UV-Vis (PBS)), the λem turned out to be 435 nm and the λmax is given as 350 nm.
The corresponding values for `Nc1cc2oc(=O)c3c(c2cc1S(=O)(=O)O)C(C(CC(=O)O)S(=O)(=O)O)CC3` (stereo not drawn) [V07-09142, 3-(7-amino-4-oxo-8-sulfo-1,2,3,4-tetrahydro-cyclopenta[c]chromen-1-yl)-3-sulfo propionic acid bis sodium salt] are 440 nm and 349 nm.
In the case of `Nc1cc2oc(=O)c3c(c2cc1S(=O)(=O)O)C(C(CC(=O)NCCCC(=O)ON1C(=O)CCC1=O)S(=O)(=O)O)CC3` (stereo not drawn) [V07-09144-NHS], in the series with Lamin A, the “specificity of staining and background compared to NHS-AMCA or NHS-Alexa Fluor 350 conjugates” value is “higher specificity of staining for the target with lower background”. Moreover, the “signal sensitivities and intensities of bound conjugates compared to conjugates made with AMCA-NHS” value in series [1] is “higher signal sensitivities and intensities”. In series [2], the “absorbance maxima (AbsMax)” value was 347 nm.
